In PubChem BioAssay (NCI):
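Test compounds were applied to cells in 96-well plates for 48 hours at 5 doses. GI50: concentration for 50% inhibition of growth. At the TGI there is no net growth.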

Columns and labels:
Test in all cases: growth of human tumour cells (NCI), 48 h
COLO 205 colon = system: COLO 205 colon
PC-3 prostate = system: PC-3 prostate
NCI-H522 lung = system: NCI-H522 lung
MCF7 breast = system: MCF7 breast
SK-MEL-5 melanoma = system: SK-MEL-5 melanoma
SW-620 colon = system: SW-620 colon
UO-31 renal = system: UO-31 renal
TK-10 renal = system: TK-10 renal
SNB-75 CNS = system: SNB-75 CNS
MALME-3M melanoma = system: MALME-3M melanoma
HT29 colon = system: HT29 colon
SF-295 CNS = system: SF-295 CNS
SR leukemia = system: SR leukemia
ACHN renal = system: ACHN renal
SK-OV-3 ovarian = system: SK-OV-3 ovarian
EKVX NSCLC = system: EKVX NSCLC
MDA-MB-435 = system: MDA-MB-435
HOP-92 NSCLC = system: HOP-92 NSCLC
M14 melanoma = system: M14 melanoma
IGROV1 ovarian = system: IGROV1 ovarian
BT-549 breast = system: BT-549 breast
UACC-62 melanoma = system: UACC-62 melanoma
NCI/ADR-RES ovarian = system: NCI/ADR-RES ovarian
MOLT-4 leukemia = system: MOLT-4 leukemia
SK-MEL-2 melanoma = system: SK-MEL-2 melanoma
KM12 colon = system: KM12 colon
SF-539 CNS = system: SF-539 CNS
HOP-62 NSCLC = system: HOP-62 NSCLC
T-47D breast = system: T-47D breast
RXF 393 renal = system: RXF 393 renal
K-562 leukemia = system: K-562 leukemia
SK-MEL-28 melanoma = system: SK-MEL-28 melanoma
SNB-19 CNS = system: SNB-19 CNS
MDA-MB-231 breast = system: MDA-MB-231 breast
UACC-257 melanoma = system: UACC-257 melanoma
LOX IMVI melanoma = system: LOX IMVI melanoma
OVCAR-5 ovarian = system: OVCAR-5 ovarian
NCI-H226 lung = system: NCI-H226 lung
HL-60(TB) leukemia = system: HL-60(TB) leukemia
SN12C renal = system: SN12C renal
HCT-116 colon = system: HCT-116 colon
SF-268 CNS = system: SF-268 CNS
DU-145 prostate = system: DU-145 prostate
OVCAR-4 ovarian = system: OVCAR-4 ovarian
A498 renal = system: A498 renal
U251 CNS = system: U251 CNS
NCI-H460 lung = system: NCI-H460 lung
HS 578T breast = system: HS 578T breast
CAKI-1 renal = system: CAKI-1 renal
HCT-15 colon = system: HCT-15 colon
OVCAR-3 ovarian = system: OVCAR-3 ovarian
786-0 renal = system: 786-0 renal
HCC-2998 colon = system: HCC-2998 colon
A549 NSCLC = system: A549 NSCLC
NCI-H23 lung = system: NCI-H23 lung
RPMI-8226 leukemia = system: RPMI-8226 leukemia
CCRF-CEM leukemia = system: CCRF-CEM leukemia
OVCAR-8 ovarian = system: OVCAR-8 ovarian

## O=C1c2c(c3c4cc(O)ccc4oc3c3[nH]c4ccccc4c23)C(=O)N1O
COLO 205 colon
  GI50: 1800 nM
  TGI: 9360 nM
PC-3 prostate
  GI50: 812 nM
  TGI: 5550 nM
NCI-H522 lung
  GI50: 220 nM
  TGI: 1220 nM
MCF7 breast
  GI50: 323 nM
  TGI: 5210 nM
SK-MEL-5 melanoma
  GI50: 275 nM
  TGI: 815 nM
SW-620 colon
  GI50: 549 nM
  TGI: 7100 nM
UO-31 renal
  GI50: 342 nM
  TGI: 1430 nM
TK-10 renal
  GI50: 5180 nM
  TGI: 15400 nM
SNB-75 CNS
  GI50: 1020 nM
  TGI: 2240 nM
MALME-3M melanoma
  GI50: 851 nM
  TGI: 5080 nM
HT29 colon
  GI50: 1600 nM
  TGI: 3800 nM
SF-295 CNS
  GI50: 488 nM
  TGI: 5580 nM
SR leukemia
  GI50: 274 nM
  TGI: 1930 nM
ACHN renal
  GI50: 360 nM
  TGI: 1760 nM
SK-OV-3 ovarian
  GI50: 941 nM
  TGI: 3300 nM
EKVX NSCLC
  GI50: 2080 nM
  TGI: 8040 nM
MDA-MB-435
  GI50: 627 nM
  TGI: 2750 nM
HOP-92 NSCLC
  GI50: 1140 nM
  TGI: 4600 nM
M14 melanoma
  GI50: 371 nM
  TGI: 3870 nM
IGROV1 ovarian
  GI50: 724 nM
  TGI: 2930 nM
BT-549 breast
  GI50: 423 nM
  TGI: 1490 nM
UACC-62 melanoma
  GI50: 703 nM
  TGI: 2400 nM
NCI/ADR-RES ovarian
  GI50: 1570 nM
  TGI: 29700 nM
MOLT-4 leukemia
  GI50: 320 nM
  TGI: 1340 nM
SK-MEL-2 melanoma
  GI50: 1380 nM
  TGI: 3080 nM
KM12 colon
  GI50: 1910 nM
  TGI: 5780 nM
SF-539 CNS
  GI50: 315 nM
  TGI: 1260 nM
HOP-62 NSCLC
  GI50: 721 nM
  TGI: 4470 nM
T-47D breast
  GI50: 461 nM
  TGI: 4530 nM
RXF 393 renal
  GI50: 872 nM
  TGI: 2260 nM
K-562 leukemia
  GI50: 428 nM
  TGI: 13900 nM
SK-MEL-28 melanoma
  GI50: 1150 nM
  TGI: 5460 nM
SNB-19 CNS
  GI50: 542 nM
  TGI: 5530 nM
MDA-MB-231 breast
  GI50: 1180 nM
  TGI: 4710 nM
UACC-257 melanoma
  GI50: 1990 nM
  TGI: 6320 nM
LOX IMVI melanoma
  GI50: 258 nM
  TGI: 1020 nM
OVCAR-5 ovarian
  GI50: 2770 nM
  TGI: 9300 nM
NCI-H226 lung
  GI50: 1320 nM
  TGI: 5010 nM
HL-60(TB) leukemia
  GI50: 460 nM
  TGI: 7830 nM
SN12C renal
  GI50: 468 nM
  TGI: 5790 nM
HCT-116 colon
  GI50: 1090 nM
  TGI: 2810 nM
SF-268 CNS
  GI50: 553 nM
  TGI: 4270 nM
DU-145 prostate
  GI50: 626 nM
  TGI: 11200 nM
OVCAR-4 ovarian
  GI50: 2170 nM
  TGI: 10700 nM
A498 renal
  GI50: 3160 nM
  TGI: 9480 nM
U251 CNS
  GI50: 452 nM
  TGI: 12700 nM
NCI-H460 lung
  GI50: 414 nM
  TGI: 2890 nM
HS 578T breast
  GI50: 1460 nM
  TGI: 5760 nM
CAKI-1 renal
  GI50: 787 nM
  TGI: 3740 nM
HCT-15 colon
  GI50: 1450 nM
  TGI: 7190 nM
OVCAR-3 ovarian
  GI50: 1570 nM
  TGI: 5230 nM
786-0 renal
  GI50: 752 nM
  TGI: 6620 nM
HCC-2998 colon
  GI50: 1350 nM
  TGI: 3590 nM
A549 NSCLC
  GI50: 3290 nM
  TGI: 18300 nM
NCI-H23 lung
  GI50: 411 nM
  TGI: 2250 nM
RPMI-8226 leukemia
  GI50: 1410 nM
  TGI: 8010 nM
CCRF-CEM leukemia
  GI50: 277 nM
  TGI: 9860 nM
OVCAR-8 ovarian
  GI50: 820 nM
  TGI: 10700 nM

## C=C(C)C(=O)O[C@H]1C[C@@]2(C)OC(=CC2=O)/C(CO)=C\[C@H]2OC(=O)C(=C)[C@H]12
COLO 205 colon
  GI50: 32.7 nM
  TGI: 95.4 nM
PC-3 prostate
  GI50: 190 nM
  TGI: 985 nM
NCI-H522 lung
  GI50: 7.73 nM
  TGI: 24.5 nM
MCF7 breast
  GI50: 86.1 nM
  TGI: 418 nM
SK-MEL-5 melanoma
  GI50: 318 nM
  TGI: 1230 nM
SW-620 colon
  GI50: 52.1 nM
  TGI: 147 nM
UO-31 renal
  GI50: 68.5 nM
  TGI: 177 nM
TK-10 renal
  GI50: 57.3 nM
  TGI: 127 nM
SNB-75 CNS
  GI50: 132 nM
  TGI: 1700 nM
MALME-3M melanoma
  GI50: 70.8 nM
  TGI: 203 nM
HT29 colon
  GI50: 112 nM
  TGI: 356 nM
SF-295 CNS
  GI50: 575 nM
  TGI: 1500 nM
SR leukemia
  GI50: 43.7 nM
  TGI: 249 nM
ACHN renal
  GI50: 61.2 nM
  TGI: 228 nM
SK-OV-3 ovarian
  GI50: 1190 nM
  TGI: > 3330 nM
EKVX NSCLC
  GI50: 137 nM
  TGI: 1070 nM
MDA-MB-435
  GI50: 66.4 nM
  TGI: 146 nM
HOP-92 NSCLC
  GI50: 72.6 nM
  TGI: 173 nM
M14 melanoma
  GI50: 72.3 nM
  TGI: 178 nM
IGROV1 ovarian
  GI50: 145 nM
  TGI: 562 nM
BT-549 breast
  GI50: 92.8 nM
  TGI: 292 nM
UACC-62 melanoma
  GI50: 56.9 nM
  TGI: 123 nM
NCI/ADR-RES ovarian
  GI50: 224 nM
  TGI: > 3330 nM
MOLT-4 leukemia
  GI50: 80.2 nM
  TGI: 265 nM
SK-MEL-2 melanoma
  GI50: 120 nM
  TGI: 490 nM
KM12 colon
  GI50: 509 nM
  TGI: 1120 nM
SF-539 CNS
  GI50: 88 nM
  TGI: 287 nM
HOP-62 NSCLC
  GI50: 654 nM
  TGI: 2350 nM
T-47D breast
  GI50: 72.9 nM
  TGI: 588 nM
RXF 393 renal
  GI50: 57.6 nM
  TGI: 120 nM
K-562 leukemia
  GI50: 94.6 nM
  TGI: 621 nM
SK-MEL-28 melanoma
  GI50: 66.1 nM
  TGI: 148 nM
SNB-19 CNS
  GI50: 937 nM
  TGI: > 3330 nM
MDA-MB-231 breast
  GI50: 79.4 nM
  TGI: 206 nM
UACC-257 melanoma
  GI50: 74 nM
  TGI: 213 nM
LOX IMVI melanoma
  GI50: 53.3 nM
  TGI: 106 nM
OVCAR-5 ovarian
  GI50: 84.8 nM
  TGI: 226 nM
NCI-H226 lung
  GI50: 68.5 nM
  TGI: 172 nM
HL-60(TB) leukemia
  GI50: 67.7 nM
  TGI: 189 nM
SN12C renal
  GI50: 114 nM
  TGI: > 1230 nM
HCT-116 colon
  GI50: 60.4 nM
  TGI: 163 nM
SF-268 CNS
  GI50: 168 nM
  TGI: 836 nM
DU-145 prostate
  GI50: 120 nM
  TGI: 673 nM
OVCAR-4 ovarian
  GI50: 151 nM
  TGI: 652 nM
A498 renal
  GI50: 565 nM
  TGI: 1290 nM
U251 CNS
  GI50: 159 nM
  TGI: 579 nM
NCI-H460 lung
  GI50: 424 nM
  TGI: 2070 nM
HS 578T breast
  GI50: 294 nM
  TGI: > 3330 nM
CAKI-1 renal
  GI50: 87.9 nM
  TGI: 301 nM
HCT-15 colon
  GI50: 70.3 nM
  TGI: 223 nM
OVCAR-3 ovarian
  GI50: 55.2 nM
  TGI: 149 nM
786-0 renal
  GI50: 65.2 nM
  TGI: 144 nM
HCC-2998 colon
  GI50: 216 nM
  TGI: 535 nM
A549 NSCLC
  GI50: 840 nM
  TGI: > 3330 nM
NCI-H23 lung
  GI50: 153 nM
  TGI: 421 nM
RPMI-8226 leukemia
  GI50: 80.9 nM
  TGI: 229 nM
CCRF-CEM leukemia
  GI50: 27.4 nM
  TGI: 259 nM
OVCAR-8 ovarian
  GI50: 115 nM
  TGI: > 1540 nM
